Laboratory results: patent US5972939A, “Cyclopentene derivatives useful as antagonists of the motilin receptor” (Ortho-McNeil Pharmaceutical, Inc., priority 1998, dated 1999)

What follows are compounds tested against T1, motilin receptors located on the colon of mature rabbits (Oryctolagus cuniculus, UniProt G1T803) (assay: competition with radiolabeled (125I) porcine motilin for the motilin receptors of rabbit colon). Settings: @ 0.1 μM.
T1 construct: The colon from mature New Zealand rabbits was removed, dissected free from the mucosa and serosa layers, and diced into small pieces; from tissue; host or cells: colon smooth muscle of mature New Zealand rabbits, crude membrane homogenate
T1 sequence (G1T803 1-400): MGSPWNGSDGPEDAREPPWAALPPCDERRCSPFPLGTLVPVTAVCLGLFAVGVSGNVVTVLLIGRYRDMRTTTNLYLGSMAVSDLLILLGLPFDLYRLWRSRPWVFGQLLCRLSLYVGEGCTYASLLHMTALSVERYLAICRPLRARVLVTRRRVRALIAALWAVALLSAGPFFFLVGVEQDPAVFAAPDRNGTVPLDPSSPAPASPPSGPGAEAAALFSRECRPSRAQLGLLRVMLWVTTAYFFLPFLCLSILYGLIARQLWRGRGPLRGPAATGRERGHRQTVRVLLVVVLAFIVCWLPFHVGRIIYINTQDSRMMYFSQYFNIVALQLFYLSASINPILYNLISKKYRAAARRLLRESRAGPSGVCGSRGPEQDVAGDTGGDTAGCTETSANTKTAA
Assay type: binding
Experimental: The compounds of the invention were tested for their ability to compete with radiolabeled motilin (porcine) for the motilin receptors located on the colon of mature rabbits. The colon from mature New Zealand rabbits was removed, dissected free from the mucosa and serosa layers, and diced into small pieces. […] The homogenate was centrifuged at 1000×g for 15 min. and the supernatant discarded. The pellet was washed twice before being suspended in homogenizing buffer. This crude homogenate is then passed first through a 19 gauge needle then a 23 gauge needle to further suspend the material and stored as -80° C. […] After 30 min, at 30° C., the material was cooled on ice and centrifuged at 13,000×g for 1 minute. The pellet was washed with 1 mL 0.9% saline and centrifuged at 13,000×g for 15 seconds. The pellet was washed again with cold saline and the supernatant was removed. The pellet was counted in the gamma counter to determine the percentage of […] motilin and thereby the percent inhibition of the test compound. IC50s were determined for some compounds by standard techniques.
For O=C(c1ccc(Cl)cc1)N(CC1=CC(Cc2ccccc2)(NC(=O)C(Cl)(Cl)Cl)CC1)c1cccc(OCCN2CCOCC2)c1 (stereo not drawn) [Compound 102], the inhibition at 0.1 µM was 61%.
Work on O=C(c1ccc([N+](=O)[O-])cc1)N(CC1=CC(Cc2ccccc2)(NC(=O)C(Cl)(Cl)Cl)CC1)c1cccc(OCCN2CCOCC2)c1 (stereo not drawn) [Compound 116] yielded an inhibition at 0.1 µM of 69%.
Compound O=C(c1ccc(C(F)(F)F)cc1)N(CC1=CC(Cc2ccccc2)(NC(=O)C(Cl)(Cl)Cl)CC1)c1cccc(OCCN2CCOCC2)c1 (stereo not drawn) [Compound 104] has an inhibition at 0.1 µM of 29%.
O=C(c1cccc(C(F)(F)F)c1)N(CC1=CC(Cc2ccccc2)(NC(=O)C(Cl)(Cl)Cl)CC1)c1cccc(OCCCN2CCOCC2)c1 (stereo not drawn) [Compound 103] gave an inhibition at 0.1 µM of 52%.
For O=C(c1cccc(Br)c1)N(CC1=CC(Cc2ccccc2)(NC(=O)C(Cl)(Cl)Cl)CC1)c1cccc(OCCN2CCOCC2)c1 (stereo not drawn) [Compound 101], the inhibition at 0.1 µM was 54%.

Same assay, conditions: @ 0.5 μM
In the case of COc1cccc(C(=O)N(CC2=CC(Cc3ccccc3)(NC(=O)C(Cl)(Cl)Cl)CC2)c2cccc(OCCN3CCOCC3)c2)c1 (stereo not drawn) [Compound 90], the inhibition at 0.5 µM is reported as 65%.

Same assay, conditions: @ 1.0 μM
In the case of O=C(c1ccc(Br)cc1)N(CC1=CC(Cc2ccccc2)(NC(=O)C(Cl)(Cl)Cl)CC1)c1cccc(OCC[N+]2([O-])CCOCC2)c1 (stereo not drawn) [Compound 137], the inhibition at 1 µM is reported as 50%.
In the case of O=C(c1ccncc1)N(CC1=CC(Cc2ccccc2)(NC(=O)C(Cl)(Cl)Cl)CC1)c1cccc(OCCN2CCOCC2)c1 (stereo not drawn) [Compound 111], the inhibition at 1 µM is reported as 51%.
Compound O=C(c1cccs1)N(CC1=CC(Cc2ccccc2)(NC(=O)C(Cl)(Cl)Cl)CC1)c1cccc(OCCN2CCOCC2)c1 (stereo not drawn) [Compound 108] has an inhibition at 1 µM of 84%.
O=C(c1cc(C(F)(F)F)cc(C(F)(F)F)c1)N(CC1=CC(Cc2ccccc2)(NC(=O)C(Cl)(Cl)Cl)CC1)c1cccc(OCCN2CCOCC2)c1 (stereo not drawn) [Compound 99] was tested, and the inhibition at 1 µM was 28%.
O=C(c1ccc(Br)cc1)N(CC1=CC(Cc2ccccc2)(NC(=O)C(Cl)(Cl)Cl)CC1)c1cc(OCCN2CCOCC2)ccc1Cl (stereo not drawn) [Compound 38] gave an inhibition at 1 µM of 59%.
O=C(c1cccc(F)c1)N(CC1=CC(Cc2ccccc2)(NC(=O)C(Cl)(Cl)Cl)CC1)c1cc(OCCN2CCOCC2)ccc1Cl (stereo not drawn) [Compound 113] showed an inhibition at 1 µM of 59%.
O=C(c1ccc2c(c1)OCO2)N(CC1=CC(Cc2ccccc2)(NC(=O)C(Cl)(Cl)Cl)CC1)c1cccc(OCCN2CCOCC2)c1 (stereo not drawn) [Compound 122] was tested, and the inhibition at 1 µM was 77%.
In the case of CC(=O)NC1(Cc2ccccc2)C=C(CN(C(=O)c2ccc(F)cc2)c2cccc(OCCN3CCOCC3)c2)CC1 (stereo not drawn) [Compound 133], the inhibition at 1 µM is reported as 51%.
O=C(c1ccc(F)cc1)N(CC1=CC(Cc2ccccc2)(NC(=O)C(Cl)(Cl)Cl)CC1)c1cccc(CCCN2CCOCC2)c1 (stereo not drawn) [Compound 98] gave an inhibition at 1 µM of 17%.
CN(C)c1ccc(C(=O)N(CCc2cccc(OCCN3CCOCC3)c2)CC2=CC(Cc3ccccc3)(NC(=O)C(Cl)(Cl)Cl)CC2)cc1 (stereo not drawn) [Compound 96] showed an inhibition at 1 µM of 62%.
O=C(NC1CCCCC1)N(CC1=CC(Cc2ccccc2)(NC(=O)C(Cl)(Cl)Cl)CC1)c1cccc(OCCN2CCOCC2)c1 (stereo not drawn) [Compound 119] showed an inhibition at 1 µM of 56%.
In the case of O=C(c1ccc(-c2ccccc2)cc1)N(CC1=CC(Cc2ccccc2)(NC(=O)C(Cl)(Cl)Cl)CC1)c1cccc(OCCN2CCOCC2)c1 (stereo not drawn) [Compound 1407], the inhibition at 1 µM is reported as 58%.
CC(=O)NC1(Cc2ccccc2)C=C(CN(C(=O)Nc2ccccc2)c2cccc(OCCN3CCOCC3)c2)CC1 (stereo not drawn) [Compound 15, 3-Benzyl-3-acetylamino-1-(N-phenylaminocarbonyl)-N-[(3-(2-morpholinoethoxy)phenyl)amino]methylcyclopentene] gave an inhibition at 1 µM of 40%.
Work on O=C(Nc1ccccc1)N(CC1=CC(Cc2ccccc2)(NC(=O)C(F)(F)F)CC1)c1cccc(OCCN2CCOCC2)c1 (stereo not drawn) [Compound 134] yielded an inhibition at 1 µM of 69%.
With O=C(C(c1ccccc1)c1ccccc1)N(CC1=CC(Cc2ccccc2)(NC(=O)C(Cl)(Cl)Cl)CC1)c1cccc(OCCN2CCOCC2)c1 (stereo not drawn) [Compound 117] the inhibition at 1 µM was 42%.
Compound O=C(c1sccc1Br)N(CC1=CC(Cc2ccccc2)(NC(=O)C(Cl)(Cl)Cl)CC1)c1cccc(OCCN2CCOCC2)c1 (stereo not drawn) [Compound 115] has an inhibition at 1 µM of 65%.
With O=C(Oc1ccccc1)N(CC1=CC(Cc2ccccc2)(NC(=O)C(Cl)(Cl)Cl)CC1)c1cccc(OCCN2CCOCC2)c1 (stereo not drawn) [Compound 118] the inhibition at 1 µM was 51%.
For O=C(Nc1cccc(Br)c1)N(CC1=CC(Cc2ccccc2)(NC(=O)C(Cl)(Cl)Cl)CC1)c1cccc(OCCN2CCOCC2)c1 (stereo not drawn) [Compound 112], the inhibition at 1 µM was 51%.
O=C(Nc1ccccc1)N(CC1=CC(Cc2ccccc2)(NC(=O)C(Cl)(Cl)Cl)CC1)c1cccc(CCCN2CCOCC2)c1 (stereo not drawn) [Compound 19] was tested, and the inhibition at 1 µM was 59%.
O=C(Nc1ccccc1)N(CC1=CC(Cc2ccccc2)(NC(=O)C(Cl)(Cl)Cl)CC1)c1cccc(OCC[N+]2([O-])CCOCC2)c1 (stereo not drawn) [Compound 136] gave an inhibition at 1 µM of 57%.

Same assay, conditions: @ 2.0 μM
For COc1ccc(CCN(CCN2CCOCC2)CC2=CC(Cc3ccccc3)(NC(=O)C(Cl)(Cl)Cl)CC2)cc1OC(=O)c1ccccc1 (stereo not drawn) [Compound 95], the inhibition at 2 µM was 22%.
O=C(Oc1cccc(CCN(CCN2CCOCC2)CC2=CC(Cc3ccccc3)(NC(=O)C(Cl)(Cl)Cl)CC2)c1)c1ccccc1 (stereo not drawn) [Compound 85] gave an inhibition at 2 µM of 9%.

Same assay, conditions: @ 10 μM
CCN(CC)CCN(CC1=CC(Cc2ccccc2)(NC(=O)C(Cl)(Cl)Cl)CC1)c1ccc(O)cc1 (stereo not drawn) [Compound 74] showed an inhibition at 10 µM of 81%.
CCN(CC)CCOc1cccc(CN(CC2=CC(Cc3ccccc3)(NC(=O)C(Cl)(Cl)Cl)CC2)C(=O)c2ccccc2)c1 (stereo not drawn) [Compound 83] gave an inhibition at 10 µM of 100%.
COc1ccc(NCC2=CC(Cc3ccccc3)(NC(=O)C(Cl)(Cl)Cl)CC2)cc1OCCN1CCOCC1 (stereo not drawn) [Compound 94] was tested, and the inhibition at 10 µM was 48%.
O=C(Nc1ccccc1)N(CC1=CC(Cc2ccccc2)(NC(=O)C(Cl)(Cl)Cl)CC1)c1cccc(SCCN2CCOCC2)c1 (stereo not drawn) [Compound 22, 3-Benzyl-3-trichloroacetylamino-1-(N-phenylaminocarbonyl)-N-[(3-(2-morpholinoethyl)phenyl)thio]methylcyclopentene] gave an inhibition at 10 µM of 83%.
Compound O=C(NC1(Cc2ccccc2)C=C(CNc2cccc(OCCN3CCOCC3)c2)CC1)C(Cl)(Cl)Cl (stereo not drawn) [Compound 6] has an inhibition at 10 µM of 37%.
Work on Nc1cccc(NCC2=CC(Cc3ccccc3)(NC(=O)C(Cl)(Cl)Cl)CC2)c1 (stereo not drawn) [Compound 75] yielded an inhibition at 10 µM of 41%.
For O=C(NC1(Cc2ccccc2)C=C(CN(Cc2ccccc2)Cc2cccc(OCCN3CCOCC3)c2)CC1)C(Cl)(Cl)Cl (stereo not drawn) [Compound 88], the inhibition at 10 µM was 94%.
With CCN(CC)CCSc1cccc(N(CC2=CC(Cc3ccccc3)(NC(=O)C(Cl)(Cl)Cl)CC2)C(=O)c2ccccc2)c1 (stereo not drawn) [Compound 79] the inhibition at 10 µM was 98%.
In the case of CCN(CC)CCN(CC1=CC(Cc2ccccc2)(NC(=O)C(Cl)(Cl)Cl)CC1)c1ccccc1O (stereo not drawn) [Compound 73], the inhibition at 10 µM is reported as 84%.
In the case of COc1ccc(N(CC2=CC(Cc3ccccc3)(NC(=O)C(Cl)(Cl)Cl)CC2)C(=O)c2ccccc2)cc1OCCN1CCOCC1 (stereo not drawn) [Compound 34], the inhibition at 10 µM is reported as 74%.
Work on O=C(c1ccccc1)N(CC1=CC(Cc2ccccc2)(NC(=O)C(Cl)(Cl)Cl)CC1)c1cccc(SCCN2CCOCC2)c1 (stereo not drawn) [Compound 82] yielded an inhibition at 10 µM of 80%.
COc1ccc(N(CC2=CC(Cc3ccccc3)(NC(=O)C(Cl)(Cl)Cl)CC2)Cc2ccccc2)cc1OCCN1CCOCC1 (stereo not drawn) [Compound 93] showed an inhibition at 10 µM of 62%.
O=C(NC1(Cc2ccccc2)C=C(CNCCc2cccc(SCCN3CCOCC3)c2)CC1)C(Cl)(Cl)Cl (stereo not drawn) [Compound 81] was tested, and the inhibition at 10 µM was 81%.
O=C(c1ccccc1)N(CC1=CC(Cc2ccccc2)(NC(=O)C(Cl)(Cl)Cl)CC1)Cc1cccc(OCCN2CCOCC2)c1 (stereo not drawn) [Compound 32] showed an inhibition at 10 µM of 70%.
COc1ccc(NCC2=CC(Cc3ccccc3)(NC(=O)C(Cl)(Cl)Cl)CC2)cc1O (stereo not drawn) [Compound 87] showed an inhibition at 10 µM of 32%.
In the case of O=C(c1ccc(F)cc1)N(CC1=CC(Cc2ccccc2)(NC(=O)C(Cl)(Cl)Cl)CC1)c1cccc(SCCN2CCOCC2)c1 (stereo not drawn) [Compound 80], the inhibition at 10 µM is reported as 79%.
Work on COc1ccc(C(=O)N(CC2=CC(Cc3ccccc3)(NC(=O)C(Cl)(Cl)Cl)CC2)c2cccc(SCCN3CCOCC3)c2)cc1 (stereo not drawn) [Compound 84] yielded an inhibition at 10 µM of 59%.
Work on O=C(NC1(Cc2ccccc2)C=C(CNc2ccc(O)cc2)CC1)C(Cl)(Cl)Cl (stereo not drawn) [Compound 69] yielded an inhibition at 10 µM of 11%.
CCN(CC)CCN(CC1=CC(Cc2ccccc2)(NC(=O)C(Cl)(Cl)Cl)CC1)c1ccc(OCCN(C)C)cc1 (stereo not drawn) [Compound 71] was tested, and the inhibition at 10 µM was 85%.
With CCN(CC)CCN(CCc1ccc(O)cc1)CC1=CC(Cc2ccccc2)(NC(=O)C(Cl)(Cl)Cl)CC1 (stereo not drawn) [Compound 76] the inhibition at 10 µM was 84%.

Same assay, conditions: @ 100 μM
O=C(c1ccc(F)c(F)c1)N(CC1=CC(Cc2ccccc2)(NC(=O)C(Cl)(Cl)Cl)CC1)c1cc(OCCN2CCOCC2)ccc1Cl (stereo not drawn) [Compound 114] showed an inhibition at 100 µM of 52%.

Same assay, conditions: rabbit colon, 125I motilin; read-out: IC50
Work on O=C(Nc1ccc(F)cc1)N(CC1=CC(Cc2cccc(Cl)c2)(NC(=O)C(Cl)(Cl)Cl)CC1)c1cccc(OCCN2CCOCC2)c1 (stereo not drawn) [Compound 120] yielded an IC50 of 10 nM.
With O=C(c1c(F)c(F)c(F)c(F)c1F)N(CC1=CC(Cc2ccccc2)(NC(=O)C(Cl)(Cl)Cl)CC1)c1cccc(OCCN2CCOCC2)c1 (stereo not drawn) [Compound 100] the IC50 was 1000 nM.

Same assay, conditions: rabbit colon, 125I motilin; read-out: IC50 (unit inferred)
Compound CCN(CC)CCOc1cccc(CN(CC2=CC(Cc3ccccc3)(NC(=O)C(Cl)(Cl)Cl)CC2)C2CCN(Cc3ccccc3)CC2)c1 (stereo not drawn) [Compound 77] has an IC50 of 800 nM.
With CCN(CC)CCN(CC1=CC(Cc2ccccc2)(NC(=O)C(Cl)(Cl)Cl)CC1)c1ccccc1OCCN1CCOCC1 (stereo not drawn) [Compound 72] the IC50 was 900 nM.
CC(=O)N(CC1=CC(Cc2ccccc2)(NC(=O)C(Cl)(Cl)Cl)CC1)c1cccc(OCCN2CCOCC2)c1 (stereo not drawn) [Compound 78] was tested, and the IC50 was 1030 nM.
